Measurements published in patent US20240148821A1, “PHARMACEUTICAL USE OF CYCLIC PEPTIDE COMPOUND” (CHUGAI SEIYAKU KABUSHIKI KAISHA, priority 2021, published 2024).
Bridge positions count the residues as written; N and C are the ends. Square brackets hold non-standard residues; d marks the D form. Peptide text beside a SMILES is read from it. * marks the point of attachment. hPhe(3,5-F2-4-CF3) = N[C@@H](CCc1cc(F)c(C(F)(F)F)c(F)c1)C(=O)O; hPhe(3-Cl-4-CF3) = N[C@@H](CCc1ccc(C(F)(F)F)c(Cl)c1)C(=O)O; hPhe(3-F,4-CF3) = N[C@@H](CCc1ccc(C(F)(F)F)c(F)c1)C(=O)O; Pro(cis-4-Ph) = O=C(O)[C@@H]1C[C@H](c2ccccc2)CN1; NMeAla(4-thiazolyl) = CN[C@@H](Cc1cscn1)C(=O)O; NMePhe(4-Cl) = CN[C@@H](Cc1ccc(Cl)cc1)C(=O)O; NMeGly(cPent) = CN[C@H](C(=O)O)C1CCCC1; Phe(3-I) = N[C@@H](Cc1cccc(I)c1)C(=O)O; Pro(4,4-F2) = O=C(O)[C@@H]1CC(F)(F)CN1; NMeAla(cPr) = CN[C@@H](CC1CC1)C(=O)O; NMeCha = CN[C@@H](CC1CCCCC1)C(=O)O; NMeChg = CN[C@H](C(=O)O)C1CCCCC1; NMeD = CN[C@@H](CC(=O)O)C(=O)O; NMeL = CN[C@@H](CC(C)C)C(=O)O; NMeV = CN[C@H](C(=O)O)C(C)C; d(β3hA) = C[C@@H](N)CC(=O)O; NMeS = CN[C@@H](CO)C(=O)O; NMeA = CN[C@@H](C)C(=O)O; NMeAib = CNC(C)(C)C(=O)O; Piperidide = C1CCN(*)CC1; Pra = C#CC[C@H](N)C(=O)O; Pyrrolidide = C1CCN(*)C1; dNMeA = CN[C@H](C)C(=O)O; Ac5c = NC1(C(=O)O)CCCC1; Aze = O=C(O)[C@@H]1CCN1; CH2CMe2OH = CC(C)(O)C*; Aib = CC(C)(N)C(=O)O; Isopentyl = CC(C)CC*; Sar = CNCC(=O)O

test system: Human pancreatic cancer cell line AsPC-1 (G12D mutation Kras); assay: AsPC-1 cell growth inhibition (AsPC-1 CGI); type: cell-based; details: read-out: AsPC-1 cell growth inhibition, 50% growth inhibitory concentration (IC50 value); 96 hours, CellTiter-Glo, values classified in ranges
Description: Test compounds were serially dilated with dimethyl sulfoxide, and 200 nL was then dispensed to a U-bottom 96-well plate using Labcyte Echo. […] The cell suspension was dispensed to a. plate containing a test compound at 100 μL per well and incubated at 37° C. in a 5% carbon dioxide gas incubator. 96 hours later, 80 μL of CellTiter-Glo (Promega) was added to each well and fluorescence was measured.

SMILES	IC50
CC[C@H](C)[C@@H]1NC(=O)[C@H](CC(C)C)N(C)C(=O)C[C@@H](C(=O)N2CCCC2)N(C)C(=O)[C@H](C2CCCC2)N(C)C(=O)C2(CCCC2)NC(=O)[C@@H]2CC(F)(F)CN2C(=O)[C@H](CCc2cc(F)c(C(F)(F)F)c(F)c2)NC(=O)CN(C)C(=O)[C@H](CC2CCCCC2)N(C)C(=O)CN(C)C(=O)CN(C)C1=O [Compound 1166] ([NMeL]I[Sar][Sar][NMeCha][Sar][hPhe(3,5-F2-4-CF3)][Pro(4,4-F2)][Ac5c][NMeGly(cPent)][NMeD]-Pyrrolidide; lactam N-11)	≤ 20 nM
C#CC[C@@H]1NC(=O)[C@H](Cc2cccc(I)c2)NC(=O)CN(C)C(=O)[C@H](Cc2ccc(Cl)cc2)N(C)C(=O)[C@@H]2CCN2C(=O)[C@H](C)N(C)C(=O)[C@H]([C@@H](C)CC)NC(=O)[C@H](CC(C)C)N(C)C(=O)C[C@@H](C(=O)N2CCCCC2)N(C)C(=O)[C@H](CC(C)C)NC(=O)C(C)(C)N(C)C1=O [Compound 1428] ([NMeL]I[NMeA][Aze][NMePhe(4-Cl)][Sar][Phe(3-I)][Pra][NMeAib]L[NMeD]-Piperidide; lactam N-11)	> 500 nM
CC[C@H](C)[C@@H]1NC(=O)[C@H](CC(C)C)N(C)C(=O)C[C@@H](C)NC(=O)[C@H](C(C)C)N(C)C(=O)C2(CCCC2)NC(=O)[C@@H]2CCCN2C(=O)[C@H](CCc2ccc(C(F)(F)F)c(Cl)c2)NC(=O)CN(C)C(=O)[C@H](CC2CC2)N(C)C(=O)CN(C)C(=O)CN(C)C1=O [Compound 511] (cyclo([Ac5c][NMeV][d(β3hA)][NMeL]I[Sar][Sar][NMeAla(cPr)][Sar][hPhe(3-Cl-4-CF3)]P))	> 500 nM
CC[C@H](C)[C@@H]1NC(=O)[C@H](CC(C)C)N(C)C(=O)C[C@@H](C(=O)N2CCCCC2)N(C)C(=O)[C@H](CC(C)C)N(C)C(=O)C(C)(C)NC(=O)[C@H](COCC(C)(C)O)N(C)C(=O)[C@H](CCc2ccc(C(F)(F)F)c(Cl)c2)NC(=O)CN(C)C(=O)[C@H](COCCC(C)C)N(C)C(=O)CN(C)C(=O)CN(C)C1=O [Compound 1541] ([NMeL]I[Sar][Sar][NMeS](Isopentyl)[Sar][hPhe(3-Cl-4-CF3)][NMeS](CH2CMe2OH)[Aib][NMeL][NMeD]-Piperidide; lactam N-11)	> 500 nM
CC[C@H](C)[C@@H]1NC(=O)[C@H](C)N(C)C(=O)C[C@@H](C)NC(=O)[C@H](C2CCCC2)N(C)C(=O)C2(CCCC2)NC(=O)[C@@H]2CCCN2C(=O)[C@H](CCc2ccc(C(F)(F)F)c(Cl)c2)NC(=O)[C@@H](C)N(C)C(=O)[C@H](CC2CCCCC2)N(C)C(=O)CN(C)C(=O)CN(C)C1=O [Compound 1535] (cyclo([Ac5c][NMeGly(cPent)][d(β3hA)][NMeA]I[Sar][Sar][NMeCha][dNMeA][hPhe(3-Cl-4-CF3)]P))	> 500 nM
CC[C@H](C)[C@@H]1NC(=O)[C@H](C(C)C)N(C)C(=O)C[C@@H](C)NC(=O)[C@H](CC(C)C)N(C)C(=O)C2(CCCC2)NC(=O)[C@H](CC(C)C)N(C)C(=O)[C@H](CCc2ccc(C(F)(F)F)c(F)c2)NC(=O)CN(C)C(=O)[C@H](Cc2ccc(Cl)cc2)N(C)C(=O)[C@@H]2CCN2C(=O)CN(C)C1=O [Compound 418] (cyclo([Ac5c][NMeL][d(β3hA)][NMeV]I[Sar][Aze][NMePhe(4-Cl)][Sar][hPhe(3-F,4-CF3)][NMeL]))	> 500 nM
CC[C@H](C)[C@@H]1NC(=O)[C@H](CC(C)C)N(C)C(=O)C[C@@H](C(=O)N2CCCCC2)N(C)C(=O)[C@H](C2CCCCC2)N(C)C(=O)C2(CCCC2)NC(=O)[C@H](Cc2cscn2)N(C)C(=O)[C@H](CCc2ccc(C(F)(F)F)c(Cl)c2)NC(=O)CN(C)C(=O)[C@H](CC2CCCCC2)N(C)C(=O)CN(C)C(=O)CN(C)C1=O [Compound 500] ([NMeL]I[Sar][Sar][NMeCha][Sar][hPhe(3-Cl-4-CF3)][NMeAla(4-thiazolyl)][Ac5c][NMeChg][NMeD]-Piperidide; lactam N-11)	> 500 nM
CC(C)C[C@H]1C(=O)N[C@@H](CO)C(=O)N(C)CC(=O)N(C)CC(=O)N(C)[C@@H](CC2CCCCC2)C(=O)N(C)CC(=O)N[C@@H](CCc2ccc(C(F)(F)F)c(Cl)c2)C(=O)N2CCC[C@H]2C(=O)NC2(CCCC2)C(=O)N(C)[C@@H](C2CCCCC2)C(=O)N(C)[C@H](C(=O)N2CCCCC2)CC(=O)N1C [Compound 1799] ([NMeL]S[Sar][Sar][NMeCha][Sar][hPhe(3-Cl-4-CF3)]P[Ac5c][NMeChg][NMeD]-Piperidide; lactam N-11)	> 500 nM
CC[C@H](C)[C@@H]1NC(=O)[C@H](CC(C)C)N(C)C(=O)C[C@@H](C(=O)N2CCCCC2)N(C)C(=O)[C@H](C2CCCCC2)N(C)C(=O)C2(CCCC2)NC(=O)[C@@H]2C[C@H](c3ccccc3)CN2C(=O)[C@H](CCc2ccc(C(F)(F)F)c(Cl)c2)NC(=O)CN(C)C(=O)[C@H](CC2CCCCC2)N(C)C(=O)[C@@H]2CCN2C(=O)[C@H](C)N(C)C1=O [Compound 1053] ([NMeL]I[NMeA][Aze][NMeCha][Sar][hPhe(3-Cl-4-CF3)][Pro(cis-4-Ph)][Ac5c][NMeChg][NMeD]-Piperidide; lactam N-11)	> 500 nM
